# Results from patent US11534504B2, “Compositions and methods for stabilizing coelenterazine and analogs and derivatives thereof” (Promega Corporation, priority 2018, dated 2022).
# Key:
# [1] = Analytical HPLC of Pluronic F-127 formulated substrates reconstituted in water (Examples 34-36); format: physicochemical
# Protocol: 2.5 mgs of Pluronic® F-127 (Sigma Aldrich) were massed out into […] snap-top Eppendorf tubes. The polymer was heated to 70° C. in a water bath until melted, becoming a clear solution. […] 5 μL of this stock was added to the melted polymer and pipetted to mix. […] Condition 2—After addition of substrate, the substrate/polymer solution was further diluted with 45 μL of water, frozen, and lyophilized overnight.
# Samples from both conditions 1 and 2 were reconstituted in water, diluted to 100 μM, and analyzed for chemical integrity via analytical HPLC (FIG. 54).
# This formulation was also prepared for the coelenterazine analog, furimazine. 2.5 mgs of Pluronic® F-127(Sigma Aldrich) were massed out into 1.5 mL, snap-top Eppendorf tubes. The polymer was heated to 70° C. in a water bath until melted. A 10 mM stock solution of furimazine was prepared in EtOH. 5 μL of this stock was then added to the melted polymer and pipetted to mix. […] Condition 2—After addition of substrate, the substrate/polymer solution was further diluted with 45 μL of water, frozen, and then lyophilized overnight.
# 25 mgs of Pluronic® F-127 were massed out into a 1.5 mL, snap-top Eppendorf tube. The polymer was heated to 70° C. in a water bath until melted. […] An additional 50 μL of EtOH was used to wash and aid transfer of the substrate into the polymer solution. The solvent was removed under reduced pressure without heat.
# After lyophilization, each sample was reconstituted with either 500 μL, 400 μL, 250 μL, or 100 μL water, respectively.
# [2] = Absorbance of reconstituted furimazine compositions (Example 2); format: physicochemical
# Protocol: Bulk solid furimazine was diluted in ethanol to a final concentration of 10 mM (solution 1). […] After mixing, vials containing solutions 3a-e were placed in dry ice to freeze for 1 hour. These frozen stocks where then lyophilized overnight for form dry pullulan matrices containing furimazine. […] Absorbance spectra of the formulated dry furimazine (50 nmols) with increasing amounts of pullulan after reconstitution in the PBS buffer are shown in FIG. 4A. Formulated furimazine with pullulan led to an increase in furimazine absorbance in aqueous solution. Concentration of furimazine was determined by Beer's law using the extinction coefficient of furimazine in methanol (21000 M^−1cm^−1) with absorbance measured at 254 nm. […] Absorbance of the formulated furimazine (95 μg) with increasing amounts of pullulan after reconstitution in the PBS buffer are shown in FIG. 4B. The solid furimazine formulated with increasing concentrations of pullulan matrix led to an increased in absorbance, and thus furimazine concentration in PBS buffer, compared to the conditions that contained only furimazine without pullulan.
# [3] = molecular target: T1, cell culture expressing NanoLuc® enzyme (Oplophorus gracilirostris, UniProt Q9GV45, A31E/A60N/A81I/F95D/I117V/K70R/L54V/L99Q/M102K/N193R/P142E/Q151K/Q38R/Q45L/V71I/Y165I); experiment: Luminescence intensity of Nano-Glo substrate formulations with cell culture expressing NanoLuc (Examples 30-33); format: cell-based; settings: Example 32; 100 mM HP-β-CD
# T1 construct: expressed in transfected cells
# T1 sequence (Q9GV45 28-196 with tags or gaps with the stated changes limits assumed): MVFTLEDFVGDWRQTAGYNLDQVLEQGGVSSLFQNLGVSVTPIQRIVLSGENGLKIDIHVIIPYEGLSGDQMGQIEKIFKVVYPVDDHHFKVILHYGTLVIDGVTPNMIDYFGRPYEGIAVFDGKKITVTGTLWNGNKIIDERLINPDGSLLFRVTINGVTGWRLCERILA
# Protocol: One volume of Nano-Glo® Luciferase Assay Substrate (Promega Cat. #N113) was combined with 50 volumes of Nano-Glo® Luciferase Assay Buffer (Promega Cat. #N112) containing sodium ascorbate at concentrations ranging from 0 to 300 mM. The solutions were incubated at 37° C. prior to assay at several time points. Nano-Glo® Luciferase Assay Substrate used according to manufacturer's instructions (stored at −20° C. during the course of the experiment and reconstituted for each time point) was used as a positive control. A cell culture expressing NanoLuc® enzyme was used as a sample for each time point. One volume of reconstituted Nano-Glo® Luciferase Assay Buffer was mixed with one volume of sample. After 3 minutes, the luminescence intensity was measured with a Bio-Tek Synergy® H1 96-well plate reader. For each sample, the luminescence intensity was background subtracted and normalized to the −20° C. control signal.
# A 4× furimazine solution was prepared by diluting the stock 1:25 in a buffer containing 200 mM MES pH 6.0, 200 mM hydroxypropyl-β-cyclodextrin (HP-β-CD), and 600 mM sodium ascorbate. The solution was lyophilized for 48 hours using a Virtis Advantage Pro® Lyophilizer. […] After 3 min, the luminescence intensity was measured with a Bio-Tek Synergy H1 96-well plate reader. […] For each sample, the luminescence intensity was background subtracted and normalized to the −20° C. control signal. […]
molecule,measurement,setting,value
"O=c1c(Cc2ccco2)nc2c(Cc3ccccc3)[nH]c(-c3cccc(O)c3)cn1-2 [JRW-0238, 8-benzyl-2-(furan-2-ylmethyl)-6-(3-hydroxyphenyl)imidazo[1,2-a]pyrazin-3(7H)-one]","Area Percent, peak at retention time 6.969-6.985 min",[1]; Example 34,1.571%
"O=c1c(Cc2ccco2)nc2c(Cc3ccccc3)[nH]c(-c3ccccc3)cn1-2 [furimazine, 8-benzyl-2-(furan-2-ylmethyl)-6-phenylimidazo[1,2-a]pyrazin-3(7H)-one]",absorbance at 254 nm,"[2]; 19.08 μg furimazine in 0.5 mL PBS pH 6.8, 30 minutes at room temperature",0.0571
same,calculated concentration of furimazine in solution,"[2]; Beer's law from absorbance at 254 nm, 19.08 μg in 0.5 mL PBS pH 6.8",0.0082 mM
same,"Area Percent, peak at retention time 6.104-6.109 min",[1]; Example 35,0.705%
same,"Area Percent, peak at retention time 6.541-6.548 min",[1]; Example 35,1.407%
same,"Area Percent, peak at retention time 7.949-7.957 min",[1]; Example 35,1.030%
same,"Area Percent, peak at retention time 5.028-5.038 min (main peak)","[1]; Example 35, furimazine, 100 μM",96.858%
hydroxypropyl-β-cyclodextrin [HP-β-CD],signal enhancement compared to Nano-Glo buffer alone,[3],15 to 20%
